Here are results for 15 molecules from ChEMBL document CHEMBL5352446, “Synthesis and biological evaluation of a novel c-Myc inhibitor against colorectal cancer via blocking c-Myc/Max heterodimerization and disturbing its DNA binding” (Eur J Med Chem, 2022).

Each structure is given as a SMILES string.

A short description of data set [1]: Inhibition of c-Myc/Max binding to DNA (unknown origin) by fluorescence polarization assay. Details: species or system Homo sapiens. For orientation: Polarisation of emitted light reports the rotation of a fluorescent probe.
The target of data set [2] is c-Myc/c-Max (Homo sapiens, UniProt P01106+P61244). The data set can be described thus: Inhibition of c-Myc to Max protein dimerization (unknown origin) by electrophoretic mobility shift assay. A general note: A gel shift assay detects complexes by their altered migration in electrophoresis.
Chain of c-Myc/c-Max (P01106 whole entry): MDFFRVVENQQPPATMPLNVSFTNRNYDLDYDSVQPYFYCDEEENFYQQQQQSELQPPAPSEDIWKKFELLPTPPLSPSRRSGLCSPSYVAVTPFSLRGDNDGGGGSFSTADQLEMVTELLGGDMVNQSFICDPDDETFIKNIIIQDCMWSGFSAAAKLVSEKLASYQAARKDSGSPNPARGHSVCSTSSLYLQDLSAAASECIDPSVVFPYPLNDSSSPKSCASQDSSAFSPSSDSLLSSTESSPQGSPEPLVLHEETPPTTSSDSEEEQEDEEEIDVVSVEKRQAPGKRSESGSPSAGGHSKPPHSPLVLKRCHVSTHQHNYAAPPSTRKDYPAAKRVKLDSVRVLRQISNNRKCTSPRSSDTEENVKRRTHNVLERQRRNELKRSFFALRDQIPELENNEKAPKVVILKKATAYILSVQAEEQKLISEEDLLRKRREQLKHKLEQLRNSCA
Chain of c-Myc/c-Max (P61244 whole entry): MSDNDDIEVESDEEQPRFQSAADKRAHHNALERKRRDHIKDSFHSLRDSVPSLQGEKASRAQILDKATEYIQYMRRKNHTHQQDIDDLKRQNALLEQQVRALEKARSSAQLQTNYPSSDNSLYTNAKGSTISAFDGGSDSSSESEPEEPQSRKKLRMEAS
Data set [3] concerns HCT-15. The data set can be described thus: Antiproliferative activity against human HCT-15 cells incubated for 72 hrs by MTT assay. The format is functional, cell-based. To be noted: HCT-15, 72 h.
In data set [4] the test system is HCT-8. The data set can be described thus: Antiproliferative activity against human HCT-8 cells incubated for 72 hrs by MTT assay. The format is functional, cell-based. Particulars: HCT-8, 72 h. Background: Tetrazolium assays rely on reduction of a dye to a coloured formazan, in cell work by metabolically active cells.
Data set [5] has as its system HT-29. The data set can be described thus: Antitumor activity against human HT-29 cells xenografted in BALB/c mouse assessed as tumor growth inhibition at 40 mg/kg, ip administered daily for 3 weeks by caliper method. Type of data set: functional. To be noted: HT-29, 504 h, read-out: TGI.
The nature of data set [6]: Toxicity in BALB/c mouse xenografted with human HT-29 cells assessed as body weight loss at 40 mg/kg, ip measured after 12 days. Type of data set: organism-based. Particulars: in vivo, 288 h, time 12 day.
Data set [7] in a line: Toxicity in BALB/c mouse xenografted with human HT-29 cells assessed as heart damage at 40 mg/kg, ip measured after 21 days by H and E staining based assay. The format is organism-based. Particulars: in vivo, 504 h, time 21 day.
A short description of data set [8]: Toxicity in BALB/c mouse xenografted with human HT-29 cells assessed as liver damage at 40 mg/kg, ip measured after 21 days by H and E staining based assay. Type of data set: organism-based. Particulars: in vivo, 504 h, time 21 day.
Data set [9] can be described thus: Toxicity in BALB/c mouse xenografted with human HT-29 cells assessed as lung damage at 40 mg/kg, ip measured after 21 days by H and E staining based assay. The format is organism-based. Particulars: in vivo, 504 h, time 21 day.
Data set [10] can be described thus: Toxicity in BALB/c mouse xenografted with human HT-29 cells assessed as kidney damage at 40 mg/kg, ip measured after 21 days by H and E staining based assay. Type of data set: organism-based. To be noted: in vivo, 504 h, time 21 day.
The test system of data set [11] is HT-29. Kind of data set: cells. To be noted: Homo sapiens, HT-29, 72 h.
Description: Antiproliferative activity against human HT-29 cells incubated for 72 hrs by MTT assay
Data set [12] has as its system HCT-116. The data set can be described thus: cells. To be noted: Homo sapiens, HCT-116, 72 h.
Description: Antiproliferative activity against human HCT-116 cells incubated for 72 hrs by MTT assay
Data set [13] relates to HT-29. The data set can be described thus: Inhibition of colony formation in human HT-29 cells measured after 14 days by crystal violet staining based assay. Particulars: dose 0.25-2 µM, time 14.0 day. The format is functional, cell-based.
In data set [14] the test system is HT-29. Kind of data set: Downregulation of c-Myc expression in human […] cells incubated for 24 hrs by Western blot analysis. Type of data set: functional, cell-based. To be noted: dose 2.5-10 µM.
Data set [15] is filed under the species Homo sapiens. Kind of data set: Inhibition of human Myc (353 to 439 residues)/Max(S) (151 residues) expressed in Escherichia coli BL21(DE3) binding to biotinylated double-stranded DNA oligonucleotide 5'-CACCCGGTCACTGGCCTACAC-3' (unknown origin) preincubated for 90 mins followed by oligonucleotide addition for 25 mins by EMSA. To be noted: time 115.0 min.

Molecule `C=C(OCC)c1cnn(-c2ccccc2)c1NC(=O)c1cc2nc(-c3ccco3)cc(C(F)(F)Cl)n2n1` returned a 50% inhibitory concentration (IC50) in data set [1] of 40 µM.
On to `O=C(O)c1ccc(Nc2ccc([N+](=O)[O-])c3nonc23)cc1`, for which the 50% inhibitory concentration (IC50) in data set [2] came out at 33 µM.
Consider `O=c1[nH]cc(F)c(=O)[nH]1` [FLUOROURACIL], for which the IC50 in [3] was 8.23 µM; in data set [4], more than 20 µM; in [11], 9.19 µM; in data set [12] it was 6.5 µM. In [5], the inhibition in vivo at 40 mg/kg was determined as 50.2%. In addition, the Activity result in data set [6], in data set [7], in data set [8], in data set [9] and in data set [10] was “Toxic” throughout.
On to `COc1cc(Oc2ccc(-c3ccc(C)cc3)cc2)cc(OC)c1CNCCc1ccc(C(F)(F)F)cc1`, for which the IC50 in [3] was 2.32 µM; in data set [4], 8.95 µM; in data set [11] it was 1.35 µM; in data set [12], 2.41 µM.
Taken in the same sequence, the figures for `COc1ccc(Nc2ccc(Oc3cc(OC)c(CNCCc4ccc(C(F)(F)F)cc4)c(OC)c3)cc2)cc1C` were 7.09 µM, 6.97 µM, 2.34 µM and 5.25 µM.
`COc1cc(Oc2ccc(Nc3ccccc3)cc2)cc(OC)c1CNCCc1ccc(Cl)cc1`: the concentration for half-maximal inhibition (IC50) is 6.64 µM in data set [3], 6.13 µM in data set [4], 2.44 µM in data set [11] and 4.98 µM in [12].
As to `COc1ccc(CCNCc2c(OC)cc(Oc3ccc(Nc4ccccc4)cc3)cc2OC)cc1`, the IC50 in [3] was found to be 3.15 µM; in data set [4] it was 4.81 µM; in [11], 1.36 µM; in data set [12] it was 1.95 µM. Moreover, the inhibition entry in [13] and in data set [15] was “Dose-Dependent Effect” in each case. Besides, the Activity result in [14] is “Dose-Dependent Effect”. In data set [5], the inhibition in vivo at 40 mg/kg was determined as 55.8%.
Regarding `COc1cc(Oc2ccc(Nc3ccccc3)cc2)cc(OC)c1CNCCc1ccc(N)cc1`, the half-inhibitory concentration (IC50) in data set [3] was 5.65 µM; in [4] it was 6.21 µM; in data set [11] it was 2.65 µM; in data set [12] it was 2.87 µM.
Consider `COc1cc(Oc2ccc(-c3ccc(C(F)(F)F)cc3)cc2)cc(OC)c1CNCCc1ccc(C(F)(F)F)cc1`, for which the IC50 in data set [3] amounted to 4.89 µM; in data set [4], 8.76 µM; in data set [11] it was 2.51 µM; in data set [12] it was 4.7 µM.
With `CCc1ccc(Nc2ccc(Oc3cc(OC)c(CNCCc4ccc(C(F)(F)F)cc4)c(OC)c3)cc2)cc1`, the half-inhibitory concentration (IC50) in [3] came to 5.54 µM; in [4] it was 4.58 µM; in data set [11], 1.51 µM; in [12] it was 3.87 µM.
As for `COc1ccc(CCNCc2c(OC)cc(Oc3ccc(Nc4ccccc4)cc3)cc2OC)cc1OC`, the IC50 in [3] amounted to 3.54 µM; in [4], 6.32 µM; in data set [11], 1.54 µM; in data set [12], 2.62 µM.
As to `COc1ccc(Nc2ccc(Oc3cc(OC)c(CNCCc4ccc(C(F)(F)F)cc4)c(OC)c3)cc2)cc1OC`, the 50% inhibitory concentration (IC50) in data set [3] is 3.35 µM; in data set [4] it was 3.13 µM; in data set [11], 0.92 µM; in data set [12], 1.35 µM.
Consider `COc1cc(Oc2ccc(Nc3ccccc3)cc2)cc(OC)c1CNCCc1cccs1`, for which the IC50 in [3] was 7.56 µM; in data set [4], 10.8 µM; in [11], 2.65 µM; in [12] it was 3.85 µM.
Consider `CCOc1ccc(Nc2ccc(Oc3cc(OC)c(CNCCc4ccc(C(F)(F)F)cc4)c(OC)c3)cc2)cc1`, for which the IC50 stood at 5.3 µM in [3], 5.32 µM in data set [4], 0.86 µM in data set [11] and 3.08 µM in [12].
Regarding `COc1cc(Oc2ccc(-c3ccc(Br)cc3)cc2)cc(OC)c1CNCCc1ccc(C(F)(F)F)cc1`, the 50% inhibitory concentration (IC50) amounted to 2.23 µM in data set [3], 8.75 µM in [4], 2.57 µM in data set [11] and 2.71 µM in data set [12].

For orientation: IC50 means the midpoint of a concentration-inhibition curve.
